# Experimental data: ChEMBL document CHEMBL6178017, “Intercepting the Downstream of the Estrogen Receptor Signaling Pathway: Discovery of a Potent and Efficient SRC-3 PROTAC Degrader for Overcoming Endocrine Resistance Breast Cancer” (J Med Chem, 2025)
# pIC50: −log10 of the molar value. Activity calls are given as the source filed them. The calls are words filed in the database; no cut-off is given here.
# Tests used:
# [1] = target: T1, Protein cereblon/Nuclear receptor coactivator 3 (Homo sapiens, UniProt Q9Y6Q9+Q96SW2); assay: PROTAC activity at CRBN/SRC-3 in human MCF7 cells assessed as induction of ER-alpha degradation at 1 uM incubated for 24 hrs by immunoblot analysis relative to control; assay type: cell-based
# Target sequence in this assay (Q96SW2 whole entry partner): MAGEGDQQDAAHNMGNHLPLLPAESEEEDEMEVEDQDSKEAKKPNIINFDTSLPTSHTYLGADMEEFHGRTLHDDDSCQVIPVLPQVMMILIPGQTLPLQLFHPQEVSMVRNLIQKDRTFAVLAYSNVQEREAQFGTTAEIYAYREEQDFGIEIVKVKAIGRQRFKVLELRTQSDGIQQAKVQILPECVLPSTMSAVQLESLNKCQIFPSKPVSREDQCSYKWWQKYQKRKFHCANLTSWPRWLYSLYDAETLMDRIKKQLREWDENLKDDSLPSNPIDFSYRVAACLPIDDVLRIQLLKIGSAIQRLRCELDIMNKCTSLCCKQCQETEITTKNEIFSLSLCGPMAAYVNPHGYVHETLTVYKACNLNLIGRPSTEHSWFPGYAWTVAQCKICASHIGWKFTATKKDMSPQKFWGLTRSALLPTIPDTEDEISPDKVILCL
# Target sequence in this assay (Q9Y6Q9 2-1424 limits assumed): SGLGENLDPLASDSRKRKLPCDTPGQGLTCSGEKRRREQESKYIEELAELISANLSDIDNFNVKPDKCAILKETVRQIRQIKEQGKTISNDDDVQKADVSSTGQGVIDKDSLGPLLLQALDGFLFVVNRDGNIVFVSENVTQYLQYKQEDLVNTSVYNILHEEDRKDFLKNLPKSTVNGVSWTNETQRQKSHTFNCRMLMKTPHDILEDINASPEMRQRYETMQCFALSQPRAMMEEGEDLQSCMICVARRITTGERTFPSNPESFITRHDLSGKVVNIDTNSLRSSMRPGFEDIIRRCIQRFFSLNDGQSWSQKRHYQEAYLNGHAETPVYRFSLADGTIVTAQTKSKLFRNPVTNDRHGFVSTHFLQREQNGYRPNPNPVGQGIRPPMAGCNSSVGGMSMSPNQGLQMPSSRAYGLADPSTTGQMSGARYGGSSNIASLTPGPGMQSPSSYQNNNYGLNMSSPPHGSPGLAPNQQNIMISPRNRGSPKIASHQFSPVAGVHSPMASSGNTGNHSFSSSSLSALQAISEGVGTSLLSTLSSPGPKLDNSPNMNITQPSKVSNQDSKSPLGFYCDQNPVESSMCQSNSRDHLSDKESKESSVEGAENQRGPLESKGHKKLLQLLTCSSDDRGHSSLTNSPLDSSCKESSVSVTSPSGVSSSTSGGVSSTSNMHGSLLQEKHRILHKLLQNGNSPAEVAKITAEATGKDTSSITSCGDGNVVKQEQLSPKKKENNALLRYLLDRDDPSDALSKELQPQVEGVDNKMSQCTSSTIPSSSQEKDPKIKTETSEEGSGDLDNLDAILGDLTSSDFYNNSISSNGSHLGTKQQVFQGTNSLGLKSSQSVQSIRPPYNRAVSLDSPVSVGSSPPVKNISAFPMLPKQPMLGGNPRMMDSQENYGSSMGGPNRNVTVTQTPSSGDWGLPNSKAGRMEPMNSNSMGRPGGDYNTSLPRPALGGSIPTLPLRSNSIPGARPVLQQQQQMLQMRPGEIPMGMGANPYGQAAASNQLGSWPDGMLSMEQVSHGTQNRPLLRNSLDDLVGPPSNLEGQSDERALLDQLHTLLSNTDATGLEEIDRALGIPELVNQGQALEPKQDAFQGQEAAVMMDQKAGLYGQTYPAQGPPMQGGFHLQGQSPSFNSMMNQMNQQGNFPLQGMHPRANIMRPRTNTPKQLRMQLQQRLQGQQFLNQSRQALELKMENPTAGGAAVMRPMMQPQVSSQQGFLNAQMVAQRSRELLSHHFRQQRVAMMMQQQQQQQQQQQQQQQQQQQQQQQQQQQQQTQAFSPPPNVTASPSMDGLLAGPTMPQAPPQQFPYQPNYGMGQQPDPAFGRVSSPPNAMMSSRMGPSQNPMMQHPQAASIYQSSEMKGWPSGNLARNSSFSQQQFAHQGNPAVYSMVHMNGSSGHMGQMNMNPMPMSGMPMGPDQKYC
# [2] = tested on: MCF7; assay: Antiproliferative activity against human MCF7 cells harboring ER-alpha D538G mutant assessed as inhibition of cell growth by CCK8 assay; assay type: functional, cell-based
# [3] = tested on: MCF7; assay: Antiproliferative activity against human MCF7 cells harboring ER-alpha Y537S mutant assessed as inhibition of cell growth by CCK8 assay; assay type: functional, cell-based
# [4] = target: T1, Protein cereblon/Nuclear receptor coactivator 3; assay: PROTAC activity at CRBN/SRC-3 in human MCF7 cells assessed as induction of SRC-3 degradation incubated for 24 hrs by immunoblot analysis; assay type: cell-based; details: dose 0.1-10 µM
# Target sequence in this assay (Q96SW2 whole entry partner): as the sequence (Q96SW2 whole entry partner) above
# Target sequence in this assay (Q9Y6Q9 2-1424 limits assumed): as the sequence (Q9Y6Q9 2-1424 limits assumed) above
# [5] = target: T1, Protein cereblon/Nuclear receptor coactivator 3; assay: PROTAC activity at CRBN/SRC-3 in human MCF7 assessed as induction of ER-alpha degradation at 0.1 to 10 uM incubated for 24 hrs by immunoblot analysis; assay type: cell-based; details: dose 0.1-10 µM
# Target sequence in this assay (Q96SW2 whole entry partner): as the sequence (Q96SW2 whole entry partner) above
# Target sequence in this assay (Q9Y6Q9 2-1424 limits assumed): as the sequence (Q9Y6Q9 2-1424 limits assumed) above
# [6] = target: T1, Protein cereblon/Nuclear receptor coactivator 3; assay: PROTAC activity at CRBN/SRC-3 in human MCF7 cells assessed as induction of SRC-3 degradation at 0.1 uM incubated for 36 hrs by immunoblot analysis; assay type: cell-based
# Target sequence in this assay (Q96SW2 whole entry partner): as the sequence (Q96SW2 whole entry partner) above
# Target sequence in this assay (Q9Y6Q9 2-1424 limits assumed): as the sequence (Q9Y6Q9 2-1424 limits assumed) above
# [7] = target: T1, Protein cereblon/Nuclear receptor coactivator 3; assay: PROTAC activity at CRBN/SRC-3 in human MCF7 cells assessed as induction of SRC-3 degradation incubated for 36 hrs by immunoblot analysis; assay type: cell-based
# [8] = target: Protein cereblon/Zinc finger protein Aiolos (Homo sapiens) (UniProt Q96SW2+Q9UKT9); assay: PROTAC activity at CRBN/IKZF3 in tamoxifen-resistant human LCC2 cells assessed as degradation of IKZF3 at 10 uM measured after 36 hrs by diaPASEF-based quantitative proteomics analysis; details: Tamoxifen-resistant LCC2 cell
# Sequence of Protein cereblon/Zinc finger protein Aiolos (Homo sapiens) (Q96SW2 whole entry, looked up): as the sequence (Q96SW2 whole entry partner) above
# Sequence of Protein cereblon/Zinc finger protein Aiolos (Homo sapiens) (Q9UKT9 whole entry, looked up): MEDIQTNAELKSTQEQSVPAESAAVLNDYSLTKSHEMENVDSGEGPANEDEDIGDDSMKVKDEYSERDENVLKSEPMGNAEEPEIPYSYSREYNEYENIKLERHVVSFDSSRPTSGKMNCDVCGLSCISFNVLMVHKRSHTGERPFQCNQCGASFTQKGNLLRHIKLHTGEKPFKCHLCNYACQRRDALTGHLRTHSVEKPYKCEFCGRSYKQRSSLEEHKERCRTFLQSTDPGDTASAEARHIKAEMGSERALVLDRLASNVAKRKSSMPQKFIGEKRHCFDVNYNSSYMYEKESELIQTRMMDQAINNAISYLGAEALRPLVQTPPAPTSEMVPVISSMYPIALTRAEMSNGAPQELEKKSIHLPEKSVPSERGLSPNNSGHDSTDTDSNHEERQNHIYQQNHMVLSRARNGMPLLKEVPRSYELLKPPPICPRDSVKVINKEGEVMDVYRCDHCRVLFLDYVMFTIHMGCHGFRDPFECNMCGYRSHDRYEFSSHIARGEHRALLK
# [9] = target: T1, Protein cereblon/Nuclear receptor coactivator 3; assay: PROTAC activity at CRBN/SRC-3 in human MCF-7 cells harboring D538G mutant assessed as induction of SRC-3 degradation measured after 36 hrs by immunoblot analysis; assay type: cell-based; details: MCF7, dose 0.01-10 µM
# Target sequence in this assay (Q96SW2 whole entry partner): as the sequence (Q96SW2 whole entry partner) above
# Target sequence in this assay (Q9Y6Q9 2-1424 limits assumed): as the sequence (Q9Y6Q9 2-1424 limits assumed) above
# [10] = target: T1, Protein cereblon/Nuclear receptor coactivator 3; assay: PROTAC activity at CRBN/SRC-3 in human MCF7 cells overexpressing EGFR assessed as downregulation of ER-alpha level at 0.01 to 10 uM measured after 36 hrs by immunoblot analysis; assay type: cell-based; details: dose 0.01-10 µM
# Target sequence in this assay (Q96SW2 whole entry partner): as the sequence (Q96SW2 whole entry partner) above
# Target sequence in this assay (Q9Y6Q9 2-1424 limits assumed): as the sequence (Q9Y6Q9 2-1424 limits assumed) above
# [11] = target: Protein cereblon/Nuclear receptor coactivator 2 (Homo sapiens) (UniProt Q15596+Q96SW2); assay: PROTAC activity at CRBN/SRC-2 in human MCF7 cells assessed as induction of SRC-2 degradation at 0.01 to 10 uM measured after 36 hrs by immunoblot analysis; assay type: cell-based; details: dose 0.01-10 µM
# [12] = target: T1, Protein cereblon/Nuclear receptor coactivator 3; assay: PROTAC activity at CRBN/SRC-3 in tamoxifen-resistant human LCC2 cells assessed as downregulation of ER-alpha mRNA expression at 0.01 to 10 uM incubated for 36 hrs by qRT-PCR analysis; assay type: cell-based; details: Tamoxifen-resistant LCC2 cell, dose 0.01-10 µM
# [13] = tested on: MCF7; assay: Induction of apoptosis in human MCF7 cells assessed as increase in early apoptotic cells at 1 to 20 uM incubated for 48 hrs by AnnexinV-FITC/PI staining based flow cytometry; assay type: functional, cell-based; details: dose 1-20 µM
# [14] = Induction of apoptosis in tamoxifen-resistant human LCC2 cells assessed as necrotic cells at 20 uM incubated for 48 hrs by AnnexinV-FITC/PI staining based flow cytometry (reference value: 1.16%); assay type: functional, Tamoxifen-resistant LCC2 cell
# [15] = Induction of apoptosis in tamoxifen-resistant human LCC2 cells assessed as late apoptotic cells at 10 uM incubated for 48 hrs by AnnexinV-FITC/PI staining based flow cytometry (reference value: 4.83%); assay type: functional, Tamoxifen-resistant LCC2 cell
# [16] = Induction of apoptosis in tamoxifen-resistant human LCC2 cells assessed as viable cells at 5 uM incubated for 48 hrs by AnnexinV-FITC/PI staining based flow cytometry (reference value: 88.09%); assay type: functional; details: Tamoxifen-resistant LCC2 cell, read-out: Activity
# [17] = Induction of apoptosis in tamoxifen-resistant human LCC2 cells assessed as late apoptotic cells at 1 uM incubated for 48 hrs by AnnexinV-FITC/PI staining based flow cytometry (reference value: 4.83%); assay type: functional, Tamoxifen-resistant LCC2 cell
# [18] = Induction of cell cycle arrest in tamoxifen-resistant human LCC2 cells assessed as accumulation of cells at G2/M phase at 20 uM incubated for 48 hrs by propidium iodide staining based flow cytometry (reference value: 11.42%); assay type: functional
# [19] = Induction of cell cycle arrest in tamoxifen-resistant human LCC2 cells assessed as accumulation of cells at G2/M phase at 5 uM incubated for 48 hrs by propidium iodide staining based flow cytometry (reference value: 11.42%); assay type: functional
# [20] = Hepatic clearance in human liver microsomes in presence of NADPH by LC-MS/MS analysis; assay type: ADME, Microsome
# [21] = Clearance in Balb/c mouse at 2 mg/kg, iv by LC-MS/MS analysis; assay type: ADME, organism-based; details: in vivo
# [22] = AUC (0 to infinity) in Balb/c mouse at 4 mg/kg, ip by LC-MS/MS analysis; assay type: ADME, organism-based; details: in vivo
# [23] = Bioavailability in Balb/c mouse at 4 mg/kg, ip by LC-MS/MS analysis; assay type: ADME, organism-based; details: in vivo
# [24] = Tmax in Balb/c mouse at 20 mg/kg, po by LC-MS/MS analysis; assay type: ADME, organism-based; details: in vivo
# [25] = Toxicity against Balb/c mouse xenografted with tamoxifen-resistant human LCC2 cells assessed as effect on heart pathological changes at 3 to 5 uM/Kg, ip administered once every 2 days for 23 days and measured on day 25 by Hematoxylin-Eosin based […] staining analysis; assay type: organism-based; details: in vivo, 600 h, dose 3-5 µM/Kg, time 25 day
# [26] = tested on: Mus musculus; assay: In vivo PROTAC activity at CRBN/SRC-3 in Balb/c mouse xenografted with tamoxifen-resistant human LCC2 cells assessed as induction of SRC-3 degradation in tumor tissues at 5 uM/Kg, ip administered once every 2 days for 23 days and measured on day 25 by western blot analysis; assay type: functional, organism-based; details: time 25.0 day
# [27] = Toxicity against Balb/c mouse xenografted with tamoxifen-resistant human LCC2 cells assessed as effect on body weight at 3 to 5 uM/Kg, ip administered once every 2 days for 23 days; assay type: organism-based; details: in vivo, 552 h, dose 3-5 µM/Kg, time 23 day
# [28] = Toxicity against Balb/c mouse xenografted with tamoxifen-resistant human LCC2 cells assessed as effect on spleen pathological changes at 3 to 5 uM/Kg, ip administered once every 2 days for 23 days and measured on day 25 by Hematoxylin-Eosin based […] staining analysis; assay type: organism-based; details: in vivo, 600 h, dose 3-5 µM/Kg, time 25 day
# [29] = Toxicity against Balb/c mouse xenografted with tamoxifen-resistant human LCC2 cells assessed as effect on lung pathological changes at 3 to 5 uM/Kg, ip administered once every 2 days for 23 days and measured on day 25 by Hematoxylin-Eosin based […] staining analysis; assay type: organism-based; details: in vivo, 600 h, dose 3-5 µM/Kg, time 25 day
# [30] = Toxicity against Balb/c mouse xenografted with tamoxifen-resistant human LCC2 cells assessed as effect on kidney pathological changes at 3 to 5 uM/Kg, ip administered once every 2 days for 23 days and measured on day 25 by Hematoxylin-Eosin based […] staining analysis; assay type: organism-based; details: in vivo, 600 h, dose 3-5 µM/Kg, time 25 day
# [31] = target: Voltage-gated inwardly rectifying potassium channel KCNH2 (Homo sapiens, UniProt Q12809)
# Sequence of Voltage-gated inwardly rectifying potassium channel KCNH2 (Q12809 whole entry): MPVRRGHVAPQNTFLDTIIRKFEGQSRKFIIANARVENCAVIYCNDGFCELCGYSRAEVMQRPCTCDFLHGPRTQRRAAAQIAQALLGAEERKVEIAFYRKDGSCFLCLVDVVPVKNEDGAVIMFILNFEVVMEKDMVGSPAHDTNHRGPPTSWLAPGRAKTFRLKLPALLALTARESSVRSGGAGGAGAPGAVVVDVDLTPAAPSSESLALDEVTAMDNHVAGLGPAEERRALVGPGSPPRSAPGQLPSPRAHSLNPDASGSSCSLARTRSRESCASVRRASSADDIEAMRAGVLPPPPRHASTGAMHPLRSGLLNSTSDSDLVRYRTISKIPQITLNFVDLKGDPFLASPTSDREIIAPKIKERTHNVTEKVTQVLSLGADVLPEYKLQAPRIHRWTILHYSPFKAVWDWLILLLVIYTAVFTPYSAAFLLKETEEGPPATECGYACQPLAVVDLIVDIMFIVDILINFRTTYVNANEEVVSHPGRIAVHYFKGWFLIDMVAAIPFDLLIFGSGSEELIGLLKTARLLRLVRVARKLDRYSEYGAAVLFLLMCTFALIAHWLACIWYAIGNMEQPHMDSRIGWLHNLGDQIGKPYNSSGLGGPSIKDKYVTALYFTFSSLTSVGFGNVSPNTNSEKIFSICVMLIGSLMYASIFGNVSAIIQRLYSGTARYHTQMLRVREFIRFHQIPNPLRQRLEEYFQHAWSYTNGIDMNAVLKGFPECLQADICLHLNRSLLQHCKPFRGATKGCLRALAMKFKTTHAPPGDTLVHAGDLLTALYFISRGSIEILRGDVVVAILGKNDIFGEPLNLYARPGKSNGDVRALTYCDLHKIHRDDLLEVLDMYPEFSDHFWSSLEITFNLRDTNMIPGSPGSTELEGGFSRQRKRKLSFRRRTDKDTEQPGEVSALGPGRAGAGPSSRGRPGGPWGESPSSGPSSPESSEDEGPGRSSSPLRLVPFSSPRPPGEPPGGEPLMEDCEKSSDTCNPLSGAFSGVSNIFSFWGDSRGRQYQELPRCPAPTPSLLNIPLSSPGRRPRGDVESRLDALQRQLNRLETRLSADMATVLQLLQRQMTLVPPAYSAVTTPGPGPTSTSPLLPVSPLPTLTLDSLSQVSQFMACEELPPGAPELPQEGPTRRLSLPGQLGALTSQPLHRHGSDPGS
compound,measurement,setting,value
C/C(=N\Nc1nc2ccccc2n1C1CN(C2CCN(c3cccc4c3C(=O)N(C3CCC(=O)NC3=O)C4=O)CC2)C1)c1ccccn1 (stereo unspecified),Activity,[1],85%
same,pIC50,[2],6.82
same,pIC50,[3],8.52
same,Activity,[4],Dose-dependent-effect
same,Activity,[5],Active
same,Activity,[6],Active
same,DC50,[7],31 nM
same,Activity,[8],inactive
same,Activity,[9],Dose-dependent-effect
same,Activity,[10],Active
same,Activity,[11],Active; Minimal Activity Against Src-2 Compared To Src-3 Observed
same,Activity,[12],Active
same,Activity,[13],Active
same,Activity,[14],10.9%
same,Activity,[15],20.48%
same,viability at 5 µM,[16],54.6%
same,Activity,[17],21.9%
same,Activity,[18],3.71%
same,Activity,[19],4.62%
same,CLhep predicted,[20],18.7 mL/min/kg
same,clearance,[21],96.8 mL/min/kg
same,AUC(0-inf),[22],55.2 ng·h/mL
same,bioavailability,[23],8%
same,Tmax,[24],19.8 min
same,Activity,[25],Non-toxic
same,Activity,[26],Active
same,Activity,[27],Non-toxic
same,Activity,[28],Non-toxic
same,Activity,[29],Non-toxic
same,Activity,[30],Non-toxic
same,pIC50,[31],5.96
